Molecular target: human A2A receptor (Homo sapiens (Human), UniProt P29274)
Assay: A2A competition binding assay using Scintillation Proximity technology
Conditions: 0.5 nM tritiated radioligand, Cheng-Prusoff
Experimental: Binding affinities of compounds of the invention for the human A2A receptor were determined in a competition binding assay using Scintillation Proximity technology. Thus, 1^μg (^ denotes 1 μg of membrane/well), or preferably 0.25 μg of membranes from HEK293 cells expressing the human A2a receptor were incubated with a compound of the invention at concentrations ranging from 3000 nM to 0.15 nM in a reaction mixture containing also 0.5 nM of a tritiated form of 5-amino-7-[2-phenethyl]-2-(furan-2-yl)-7H-pyrazolo[4,3-e][1,2,4]triazolo[1,5-c]pyrimidine (the tritiated compound) and 25 μg of wheat germ agglutin-coated yttrium silicate SPA beads for one hour at room temperature with agitation. The beads were then allowed to settle to the bottom of the wells for 1 hr, after which the membrane-associated radioactivity was determined by scintillation counting in a TopCount microplate reader. Ki values were determined using the Cheng-Prusoff equation.
HEK293 cells expressing the human, rat, dog or monkey adenosine 2a receptor (Purchased from Perkin-Elmer # RBHA2AM400UA).
The Tritiated compound was prepared in-house by MRL Radiochemistry according to published methods.
Wheat germ agglutinin-coated yttrium silicate SPA beads (GE Healthcare #RPNQ0023). Dilute to 25 mg/mL in assay buffer.
Assay Buffer was prepared in house: Dulbecco's calcium and magnesium free phosphate buffered saline+10 mM MgCl2
Adenosine deaminase from calf intestine, 10 mg/2 mL (Roche #10 102 105 001).
A2A antagonist standard (9-chloro-1-(2-furanyl)-[1,2,4]triazolo[1,5-c]quinazolin-5-amine from Tocris Bioscience)
Make eight 1:3 serial dilutions in 100% DMSO from a 3 mM compound stock
Transfer 50 nL of compound into a 384-well OptiPlate (Perkin Elmer).
Typically, final concentrations of compound used in the assay ranged from 3000 nM to 0.152 nM.
Dilute a solution of the Tritiated compound to 1.25 nM in assay buffer. This a 2.5× solution. The final concentration in the assay is 0.5 nM. Calculate the concentration by counting two 5 μL aliquots.
Use *1 ug or preferrably 0.25 ug of membrane/well. Dilute membranes to 9.7 μg/ml in assay buffer. Treat with 20 ug/ml adenosine deaminase (ADA) for 15 minutes at room temperature to degrade endogenous adenosine.
Use 25 μg/well wheat germ agglutinin-coated yttrium silicate SPA beads.
Mix ADA-treated membranes and SPA beads together for 30 min prior to assay.
To the Perkin-Elmer Optiplate-384 containing the compound titration add 20 μL of 2.5× solution of the Tritiated compound and 30 μL of the membrane-bead mixture. Incubate for one hour at room temperature with agitation.
Include total binding (assay buffer+1% DMSO) and non-specific binding (CGS15943, 1 μM) wells.
Allow the beads to settle for one hour.
A curve fitting program (i.e., Prism, Activity Base, Chemcart) is used to determine the EC50. The Ki value is calculated using the Cheng-Prusoff equation. Ki=EC50/(1+(radioligand concentration/Kd)) Counting and Calculations
Counting and calculations were performed as described within the “A2A Activity Binding of Compounds of the Invention” section. Using the foregoing methods, the following results were obtained using compounds of the invention described herein. Each example compound tested is reported in the following format: Example number: A2A Ki (nM) selectivity.

[1] = 0.25 μg of membranes from HEK293 cells expressing the human A2a receptor per well
[2] = values marked ^: 1 μg of membrane/well (HEK293 cells expressing the human A2a receptor)

human A2A receptor, sequence (P29274 whole entry): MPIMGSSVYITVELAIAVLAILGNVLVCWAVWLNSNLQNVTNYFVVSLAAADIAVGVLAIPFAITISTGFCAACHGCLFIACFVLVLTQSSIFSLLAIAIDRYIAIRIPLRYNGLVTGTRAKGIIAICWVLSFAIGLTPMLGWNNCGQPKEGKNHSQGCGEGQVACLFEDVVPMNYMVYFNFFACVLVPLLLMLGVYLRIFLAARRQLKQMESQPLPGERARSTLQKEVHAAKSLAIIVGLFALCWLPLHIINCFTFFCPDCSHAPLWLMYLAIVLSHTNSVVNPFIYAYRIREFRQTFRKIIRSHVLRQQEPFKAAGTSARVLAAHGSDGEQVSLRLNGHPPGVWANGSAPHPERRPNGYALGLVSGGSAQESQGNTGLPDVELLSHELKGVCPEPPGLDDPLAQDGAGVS

Structure (SMILES) | Ki [1] [nM] | Ki [2] [nM]
COc1cccc2c1nc(N)n1nc(C3CC(F)(F)CCO3)nc21 (single isomer, unassigned) [Example 55B, 2-(4,4-difluorotetrahydro-2H-pyran-2-yl)-7-methoxy-[1,2,4]triazolo[1,5-c]quinazolin-5-amine] | 2 | 
COc1cccc2c1nc(N)n1nc(C3CCCN(c4ccccc4)C3)nc21 (single isomer, unassigned) [Example 50B, 7-methoxy-2-(1-phenylpiperidin-3-yl)-[1,2,4]triazolo[1,5-c]quinazolin-5-amine] |  | 34
C#CC(C)(C)N1CCC[C@@H](c2nc3c4cccc(OC)c4nc(N)n3n2)C1 [Example 9, (R)-7-methoxy-2-(1-(2-methylbut-3-yn-2-yl)piperidin-3-yl)-[1,2,4]triazolo[1,5-c]quinazolin-5-amine] |  | 20
Nc1nc2c3c(ccc2c2nc(C4CCCN(CCC(F)(F)F)C4)nn12)OC(F)(F)O3 (single isomer, unassigned) [Example 56A] |  | 0.8
COc1cccc2c1nc(N)n1nc([C@@H]3CCCN(CC(C(F)(F)F)C(F)(F)F)C3)nc21 [Example 2, (R)-7-methoxy-2-(1-(3,3,3-trifluoro-2-(trifluoromethyl)propyl)piperidin-3-yl)-[1,2,4]triazolo[1,5-c]quinazolin-5-amine] | 0.3 | 
COc1cccc2c1nc(N)n1nc(C3CCCN(c4ccccc4)C3)nc21 (single isomer, unassigned) [Example 50A, 7-methoxy-2-(1-phenylpiperidin-3-yl)-[1,2,4]triazolo[1,5-c]quinazolin-5-amine] |  | 0.9
COc1cccc2c1nc(N)n1nc([C@@H]3CCCN(CCCC(F)(F)F)C3)nc21 [Example 16, (R)-7-methoxy-2-(1-(4,4,4-trifluorobutyl)piperidin-3-yl)-[1,2,4]triazolo[1,5-c]quinazolin-5-amine] |  | 7.6
COc1cccc2c1nc(N)n1nc(C3CCN(c4cccc(F)c4)C3)nc21 (racemic) [Example 51, (±)-2-(1-(3-fluorophenyl)pyrrolidin-3-yl)-7-methoxy[1,2,4]triazolo[1,5-c]quinazolin-5-amine] |  | 1.4
COc1cccc2c1nc(N)n1nc([C@@H]3CCCN(CC(F)F)C3)nc21 [Example 3, (R)-2-(1-(2,2-difluoroethyl)piperidin-3-yl)-7-methoxy-[1,2,4]triazolo[1,5-c]quinazolin-5-amine] | 0.4 | 
COc1cccc2c1nc(N)n1nc(C3CNCC(F)(F)C3)nc21 (single isomer, unassigned) [Example 33A, 2-(5,5-difluoropiperidin-3-1-yl)-7-methoxy-[1,2,4]triazolo[1,5-c]quinazolin-5-amine] | 5.3 | 
COc1cccc2c1nc(N)n1nc([C@@H]3CCCN(S(=O)(=O)c4ccccc4)C3)nc21 [Example 36, (R)-7-methoxy-2-(1-(phenylsulfonyl)piperidin-3-yl)-[1,2,4]triazolo[1,5-c]quinazolin-5-amine] |  | 1.2
CCCCN1CCC[C@@H](c2nc3c4cccc(OC)c4nc(N)n3n2)C1 [Example 7, (R)-2-(1-butylpiperidin-3-yl)-7-methoxy-[1,2,4]triazolo[1,5-c]quinazolin-5-amine] |  | 29
COc1cccc2c1nc(N)n1nc(C3CN(CC(F)F)CC(F)(F)C3)nc21 (single isomer, unassigned) [Example 34B, 2-(1-(2,2-difluoroethyl)-5,5-difluoropiperidin-3-yl)-7-methoxy-[1,2,4]triazolo[1,5-c]quinazolin-5-amine] | 4.7 | 
COc1cccc2c1nc(N)n1nc(C3CC4CCC3N(CC(F)(F)F)C4)nc21 (single isomer, unassigned) [Example 35B, 7-methoxy-2-(2-(2,2,2-trifluoroethyl)-2-azabicyclo[2.2.2]octan-6-yl)-[1,2,4]triazolo[1,5-c]quinazolin-5-amine] | 54 | 
COc1cccc2c1nc(N)n1nc([C@@H]3CCCNC3)nc21 [Example 13, (R)-7-methoxy-2-(piperidin-3-yl)-[1,2,4]triazolo[1,5-c]quinazolin-5-amine] | 93 | 

— patent US10822338B2, “Substituted aminoquinazoline compounds as A2A antagonist” (Merck Sharp & Dohme Corp., priority 2015, dated 2020)
